Source: ChEMBL document CHEMBL2311510, “A new single-photon emission computed tomography (SPECT) imaging agent for serotonin transporters: [(125)I]Flip-IDAM, (2-((2-((dimethylamino)methyl)-4-iodophenyl)thio)phenyl)methanol” (Bioorg Med Chem Lett, 2013)

Legend:
Heart [1] = assay: Biodistribution in Sprague-Dawley rat heart at 11 uCi, iv measured 60 mins post compound dose; assay type: ADME, organism-based; conditions: in vivo, 1 h
Nucleic Acid [2] = assay: Ratio of drug level in striatum to cerebellum in Sprague-Dawley rat at 11 uCi, iv measured 60 mins post compound dose; assay type: ADME, organism-based; conditions: in vivo, 1 h
Spleen = assay: Biodistribution in Sprague-Dawley rat spleen at 11 uCi, iv measured 60 mins post compound dose; assay type: ADME, organism-based; conditions: in vivo, 1 h
Nucleic Acid [3] = assay: Ratio of drug level in hippocampus to cerebellum in Sprague-Dawley rat at 11 uCi, iv measured 120 mins post compound dose; assay type: ADME, organism-based; conditions: in vivo, 2 h
Pancreas = assay: Biodistribution in Sprague-Dawley rat pancreas at 11 uCi, iv measured 60 mins post compound dose; assay type: ADME, organism-based; conditions: in vivo, 1 h
Brain [4] = assay: Biodistribution in Sprague-Dawley rat rest of brain at 11 uCi, iv measured 30 mins post compound dose; assay type: ADME, organism-based; conditions: in vivo, 0.5 h
Bone = assay: Biodistribution in Sprague-Dawley rat bone at 11 uCi, iv measured 2 mins post compound dose; assay type: ADME, organism-based, Bone element; conditions: in vivo
Muscle tissue [5] = assay: Biodistribution in Sprague-Dawley rat muscle assessed as compound level per organ at 11 uCi, iv measured 120 mins post compound dose; assay type: ADME, organism-based; conditions: in vivo, 2 h
Liver [6] = assay: Biodistribution in Sprague-Dawley rat liver at 11 uCi, iv measured 30 mins post compound dose; assay type: ADME, organism-based; conditions: in vivo, 0.5 h
Brain [7] = assay: Biodistribution in Sprague-Dawley rat rest of brain at 11 uCi, iv measured 2 mins post compound dose; assay type: ADME, organism-based; conditions: in vivo
Nucleic Acid [8] = assay: Ratio of drug level in striatum to cerebellum in Sprague-Dawley rat at 11 uCi, iv measured 2 mins post compound dose; assay type: ADME, organism-based; conditions: in vivo
Hippocampus [9] = assay: Biodistribution in Sprague-Dawley rat hippocampus at 11 uCi, iv measured 2 mins post compound dose; assay type: ADME, organism-based; conditions: in vivo
Striatum = assay: Biodistribution in Sprague-Dawley rat striatum at 11 uCi, iv measured 30 mins post compound dose; assay type: ADME, organism-based; conditions: in vivo, 0.5 h
Nucleic Acid [10] = assay: Ratio of drug level in hypothalamus to cerebellum in Sprague-Dawley rat at 11 uCi, iv measured 2 mins post compound dose; assay type: ADME, organism-based; conditions: in vivo
Lung [11] = assay: Biodistribution in Sprague-Dawley rat lung at 11 uCi, iv measured 60 mins post compound dose; assay type: ADME, organism-based; conditions: in vivo, 1 h
Brain [12] = assay: Biodistribution in Sprague-Dawley rat brain assessed as compound level per organ at 11 uCi, iv measured 120 mins post compound dose; assay type: ADME, organism-based; conditions: in vivo, 2 h
Zone of skin [13] = assay: Biodistribution in Sprague-Dawley rat skin at 11 uCi, iv measured 2 mins post compound dose; assay type: ADME, organism-based; conditions: in vivo
Heart [14] = assay: Biodistribution in Sprague-Dawley rat heart at 11 uCi, iv measured 120 mins post compound dose; assay type: ADME, organism-based; conditions: in vivo, 2 h
Zone of skin [15] = assay: Biodistribution in Sprague-Dawley rat skin at 11 uCi, iv measured 60 mins post compound dose; assay type: ADME, organism-based; conditions: in vivo, 1 h
Brain [16] = assay: Biodistribution in Sprague-Dawley rat rest of brain at 11 uCi, iv measured 60 mins post compound dose; assay type: ADME, organism-based; conditions: in vivo, 1 h
Hippocampus [17] = assay: Biodistribution in Sprague-Dawley rat hippocampus at 11 uCi, iv measured 60 mins post compound dose; assay type: ADME, organism-based; conditions: in vivo, 1 h
Nucleic Acid [18] = assay: Ratio of drug level in striatum to cerebellum in Sprague-Dawley rat at 11 uCi, iv measured 30 mins post compound dose; assay type: ADME, organism-based; conditions: in vivo, 0.5 h
Liver [19] = assay: Biodistribution in Sprague-Dawley rat liver assessed as compound level per organ at 11 uCi, iv measured 30 mins post compound dose; assay type: ADME, organism-based; conditions: in vivo, 0.5 h
Lung [20] = assay: Biodistribution in Sprague-Dawley rat lung assessed as compound level per organ at 11 uCi, iv measured 30 mins post compound dose; assay type: ADME, organism-based; conditions: in vivo, 0.5 h
Blood [21] = assay: Biodistribution in Sprague-Dawley rat blood at 11 uCi, iv measured 2 mins post compound dose; assay type: ADME, organism-based; conditions: in vivo
Nucleic Acid [22] = assay: Ratio of drug level in rest of brain region to cerebellum in Sprague-Dawley rat at 11 uCi, iv measured 120 mins post compound dose; assay type: ADME, organism-based; conditions: in vivo, 2 h
Blood [23] = assay: Biodistribution in Sprague-Dawley rat blood assessed as compound level per organ at 11 uCi, iv measured 2 mins post compound dose; assay type: ADME, organism-based; conditions: in vivo
Lung [24] = assay: Biodistribution in Sprague-Dawley rat lung at 11 uCi, iv measured 30 mins post compound dose; assay type: ADME, organism-based; conditions: in vivo, 0.5 h
Muscle tissue [25] = assay: Biodistribution in Sprague-Dawley rat muscle at 11 uCi, iv measured 2 mins post compound dose; assay type: ADME, organism-based; conditions: in vivo
Lung [26] = assay: Biodistribution in Sprague-Dawley rat lung assessed as compound level per organ at 11 uCi, iv measured 2 mins post compound dose; assay type: ADME, organism-based; conditions: in vivo
Kidney [27] = assay: Biodistribution in Sprague-Dawley rat kidney assessed as compound level per organ at 11 uCi, iv measured 120 mins post compound dose; assay type: ADME, organism-based; conditions: in vivo, 2 h
Brain [28] = assay: Biodistribution in Sprague-Dawley rat brain assessed as compound level per organ at 11 uCi, iv measured 60 mins post compound dose; assay type: ADME, organism-based; conditions: in vivo, 1 h
Zone of skin [29] = assay: Biodistribution in Sprague-Dawley rat skin assessed as compound level per organ at 11 uCi, iv measured 120 mins post compound dose; assay type: ADME, organism-based; conditions: in vivo, 2 h
Liver [30] = assay: Biodistribution in Sprague-Dawley rat liver at 11 uCi, iv measured 120 mins post compound dose; assay type: ADME, organism-based; conditions: in vivo, 2 h
Liver [31] = assay: Biodistribution in Sprague-Dawley rat liver at 11 uCi, iv measured 60 mins post compound dose; assay type: ADME, organism-based; conditions: in vivo, 1 h
Heart [32] = assay: Biodistribution in Sprague-Dawley rat heart assessed as compound level per organ at 11 uCi, iv measured 2 mins post compound dose; assay type: ADME, organism-based; conditions: in vivo
Blood [33] = assay: Biodistribution in Sprague-Dawley rat blood at 11 uCi, iv measured 30 mins post compound dose; assay type: ADME, organism-based; conditions: in vivo, 0.5 h
Nucleic Acid [34] = assay: Ratio of drug level in hypothalamus to cerebellum in Sprague-Dawley rat at 11 uCi, iv measured 60 mins post compound dose; assay type: ADME, organism-based; conditions: in vivo, 1 h
Hippocampus [35] = assay: Biodistribution in Sprague-Dawley rat hippocampus at 11 uCi, iv measured 30 mins post compound dose; assay type: ADME, organism-based; conditions: in vivo, 0.5 h
Nucleic Acid [36] = assay: Ratio of drug level in cortex to cerebellum in Sprague-Dawley rat at 11 uCi, iv measured 120 mins post compound dose; assay type: ADME, organism-based; conditions: in vivo, 2 h
Liver [37] = assay: Biodistribution in Sprague-Dawley rat liver at 11 uCi, iv measured 2 mins post compound dose; assay type: ADME, organism-based; conditions: in vivo
Kidney [38] = assay: Biodistribution in Sprague-Dawley rat kidney assessed as compound level per organ at 11 uCi, iv measured 2 mins post compound dose; assay type: ADME, organism-based; conditions: in vivo
Muscle tissue [39] = assay: Biodistribution in Sprague-Dawley rat muscle assessed as compound level per organ at 11 uCi, iv measured 2 mins post compound dose; assay type: ADME, organism-based; conditions: in vivo
Zone of skin [40] = assay: Biodistribution in Sprague-Dawley rat skin at 11 uCi, iv measured 120 mins post compound dose; assay type: ADME, organism-based; conditions: in vivo, 2 h
Heart [41] = assay: Biodistribution in Sprague-Dawley rat heart assessed as compound level per organ at 11 uCi, iv measured 30 mins post compound dose; assay type: ADME, organism-based; conditions: in vivo, 0.5 h
Cortex [42] = assay: Biodistribution in Sprague-Dawley rat cortex at 11 uCi, iv measured 60 mins post compound dose; assay type: ADME, organism-based; conditions: in vivo, 1 h
Hypothalamus = assay: Biodistribution in Sprague-Dawley rat hypothalamus at 11 uCi, iv measured 30 mins post compound dose; assay type: ADME, organism-based; conditions: in vivo, 0.5 h
Heart [43] = assay: Biodistribution in Sprague-Dawley rat heart assessed as compound level per organ at 11 uCi, iv measured 60 mins post compound dose; assay type: ADME, organism-based; conditions: in vivo, 1 h
Blood [44] = assay: Biodistribution in Sprague-Dawley rat blood assessed as compound level per organ at 11 uCi, iv measured 30 mins post compound dose; assay type: ADME, organism-based; conditions: in vivo, 0.5 h
Cortex [45] = assay: Biodistribution in Sprague-Dawley rat cortex at 11 uCi, iv measured 2 mins post compound dose; assay type: ADME, organism-based; conditions: in vivo
Kidney [46] = assay: Biodistribution in Sprague-Dawley rat kidney assessed as compound level per organ at 11 uCi, iv measured 60 mins post compound dose; assay type: ADME, organism-based; conditions: in vivo, 1 h

A Drug uptake (Heart [1]) of 0.17 % ID/g, a Ratio (Nucleic Acid [2]) of 2.12 and a Drug uptake (Spleen) of 0.22 % ID/g were found for `CN(C)Cc1cc([125I])ccc1Sc1ccccc1CO` in this work. For the same molecule, the Ratio (Nucleic Acid [3]) was 1.5, the Drug uptake (Pancreas) was 0.28 % ID/g and the Drug uptake (Brain [4]) was 0.55 % ID/g. It also gave a Drug uptake (Bone) of 0.6 % ID/g, a Drug uptake (Muscle tissue [5]) of 5.45 %ID and a Drug uptake (Liver [6]) of 1.28 % ID/g. It also gave a Drug uptake (Brain [7]) of 1.14 % ID/g, a Ratio (Nucleic Acid [8]) of 0.84 and a Drug uptake (Hippocampus [9]) of 1.28 % ID/g. The Drug uptake (Striatum) was 0.78 % ID/g, the Ratio (Nucleic Acid [10]) was 1.02 and the Drug uptake (Lung [11]) was 0.42 % ID/g. The Drug uptake (Brain [12]) was 0.13 %ID, the Drug uptake (Zone of skin [13]) was 0.28 % ID/g and the Drug uptake (Heart [14]) was 0.14 % ID/g. It also gave a Drug uptake (Zone of skin [15]) of 0.2 % ID/g, a Drug uptake (Brain [16]) of 0.13 % ID/g and a Drug uptake (Hippocampus [17]) of 0.21 % ID/g. The Ratio (Nucleic Acid [18]) was 3.13, the Drug uptake (Liver [19]) was 9.09 %ID and the Drug uptake (Lung [20]) was 1.5 %ID. For the same molecule, the Drug uptake (Blood [21]) was 0.44 % ID/g, the Ratio (Nucleic Acid [22]) was 1.18 and the Drug uptake (Blood [23]) was 6.43 %ID. The Drug uptake (Lung [24]) was 0.77 % ID/g, the Drug uptake (Muscle tissue [25]) was 0.26 % ID/g and the Drug uptake (Lung [26]) was 6.52 %ID. It also gave a Drug uptake (Kidney [27]) of 1.06 %ID, a Drug uptake (Brain [28]) of 0.31 %ID and a Drug uptake (Zone of skin [29]) of 4.07 %ID. For the same molecule, the Drug uptake (Liver [30]) was 0.41 % ID/g, the Drug uptake (Liver [31]) was 0.48 % ID/g and the Drug uptake (Heart [32]) was 1.17 %ID. For the same molecule, the Drug uptake (Blood [33]) was 0.36 % ID/g, the Ratio (Nucleic Acid [34]) was 2.77 and the Drug uptake (Hippocampus [35]) was 0.66 % ID/g. For the same molecule, the Ratio (Nucleic Acid [36]) was 1.24, the Drug uptake (Liver [37]) was 1.23 % ID/g and the Drug uptake (Kidney [38]) was 4.61 %ID. The Drug uptake (Muscle tissue [39]) was 21.9 %ID, the Drug uptake (Zone of skin [40]) was 0.13 % ID/g and the Drug uptake (Heart [41]) was 0.28 %ID. The Drug uptake (Cortex [42]) was 0.2 % ID/g, the Drug uptake (Hypothalamus) was 1 % ID/g and the Drug uptake (Heart [43]) was 0.15 %ID. The Drug uptake (Blood [44]) was 5.07 %ID, the Drug uptake (Cortex [45]) was 1.39 % ID/g and the Drug uptake (Kidney [46]) was 1.44 %ID.
